{"source": "patent US4822408A", "about": "“Alkyl-, alkenyl- and alkynylnitroguanidines as cytokinin plant growth regulants” (American Cyanamid Company, priority 1987, dated 1989)", "key": {"cucumber cotyledon": {"test_system": "cucumber cotyledon", "assay": "tissue or blood", "assay_type": "cell-based, Cucumis sativa var. National Pickling", "settings": "0.06-64 ppm typically tested, inactive if more than 200 ppm; for EC50: Cucumis sativus, read-out: ED50 (the source's name)"}, "cucumber cotyledons": {"test_system": "cucumber cotyledons", "assay": "Antagonism of cytokinin activity by a cytokinin antagonist in the cucumber cotyledon bioassay", "assay_type": "cell-based, Cucumis sativa var. National Pickling", "experimental": "Cucumber seeds (Cucumis sativa var. National Pickling) are germinated in vermiculite in the dark at 30° C. for 6 days. The cotyledons are subsequently excised under a dim green safelight and placed abaxial side up in […] petri dishes at 8 pairs of cotyledons per dish. The dishes also contain three layers of Whatman No. 1 filter paper and 10 mls of test solution. The dishes with cotyledons are returned to the dark at 30° C. for about 18 hours. Thereafter the dishes are placed under fluorescent light at about 12 μw per square cm for 3 hours at 25° C. The cotyledons are then blotted and placed in 5 ml of dimethylformamide overnight and at 4° C. to extract the chlorophyll. The leachate is then analyzed for absorbance at 663 nanometers by spectrophotometry (Moran and Porath Plant Physical (1980) 65: 478-9) to determine relative chlorophyll biosynthesis. The cotyledons are then measured for area by using a sensitive leaf area meter. These two parameters, chlorophyll synthesis and enhanced expansion of the cotyledons are used as a measure of relative cytokinin activity. The test solutions typically contain between 0.06 and 64 ppm of test compound, up to 1.3% acetone, and 40 mM KCl. The amount of compound is varied in order to determine the dose at which there is achieved a response which is 50% of the maximum possible enhancement, as judged by a standard. This is termed the 50% effective dose or ED50 (Table).\nThe above compound is a known (Hecht et al.) Biochemistry 10:4224 (1971) antagonist of the activity of cytokinins such as the natural cytokinin 6-(3-methyl-2-butenylamino)purine (2iP). For example 0.003 μM 2iP is required for maximum growth of tobacco callus tissue cultures. The antagonist decreases this effect in the range of 0.1 μM (detectable) to 0.73 μM (lethal). (Ref. Skoog et al. Phytochemistry 12: 25-37 (1973)).\nTest solutions are prepared to contain a test compound in both the presence and absence of the antagonist."}, "[1]": {"test_system": "tobacco callus tissue cultures", "settings": "cited from earlier work"}, "Soybean callus": {"test_system": "Soybean callus", "assay": "Soybean callus culture bioassay (definitive cytokinin activity)", "assay_type": "cell-based, Glycine max CV. Acme", "settings": "for Callus Dry Weight / Callus Fresh Weight: 6 weeks, 3 flasks per treatment; for Callus Dry Weight: no supplement 22.2 ± 9; for Callus Fresh Weight: initial fresh weight 240 mg, no supplement 283 ± 99", "experimental": "Soybean callus cultures (from Glycine max CV. Acme) are subdivided into smaller callus pieces each weighing about 80 mg each. These pieces are placed on 50 ml of agar containing nutrient medium from which the usual growth supporting cytokinin hormone has been deleted. Without cytokinin hormone, the callus tissue will not divide and grow. Any compound which can provide for growth of the callus under these circumstances is by definition a cytokinin. The test is thus definitive and diagnostic. Different flasks of the nutrient medium are therefore supplemented with either the known cytokinin N^6 -benzyladenine as a standard or with the indicated test compound. After 6 weeks of axenic culture, the callus pieces are weighed, then oven dried and weighed again, such that the amount of callus growth is determined as a function of increased tissue weight."}, "[2]": {"test_system": "habituated callus tissue (Nicotiana tabacum A21-10H)", "assay": "Stimulation of callus growth from a habituated line of Nicotiana tabacum", "assay_type": "cell-based", "design": "key to Chlorophyll production: -: None; +: Slight; ++: Moderate; +++: Very Good", "settings": "for Callus Growth Fresh weight: 0.02 ppm naphthalene acetic acid, untreated 0.6; for Chlorophyll production: untreated -", "experimental": "A specialized callus tissue (Nicotiana tabacum A21-10H) which was known to be unique in that it had been selected to no longer require cytokinins for callus to grow (this condition is known as \"habituated\") as long as 2 ppm naphthalene acetic acid was present in the medium, is transferred to flasks of basal media containing mineral salts based on the formulation of Murashige and Skoog, Physiologia plantarum 15: 473-497 (1962), and containing 100 mg per liter of i-inositol, 0.4 mg per liter of thiamine.HCl, and 3% sucrose (Huang, L. C. and T. Murashige 1976, TCA manual 3(1): 539-548) as well as 0.9% to 0.95% Difco® agar. The pH of the medium is adjusted to pH 5.8.\nTest solutions are added from 5000 ppm stock solutions in ethanol and the stimulation of callus growth determined by the increase in fresh weight per treatment (per flask) in grams and by chlorophyll production rated as indicated in the rating system below. (No shoot regeneration can occur in this line due to the length of time (>4 years) it has been maintained in culture.)"}}, "note": "Where “and” joins values, the source holds several entries; their conditions need not be identical. Equal entries are not always repeated. Where two headings read alike, the source gives them in different places."}
{"molecule": "N=C(NCCCCO)N[N+](=O)[O-]", "note": "[HOCH2 CH2 CH2 CH2]", "values": [{"measurement": "EC50", "setting": "cucumber cotyledon", "result": 113, "unit": "µg/mL"}]}
{"molecule": "CCCCCNC(=N)N[N+](=O)[O-]", "note": "[-n-C5 H11]", "values": [{"measurement": "EC50", "setting": "cucumber cotyledon", "result": 31, "unit": "µg/mL"}]}
{"molecule": "CC(C)NC(=N)N[N+](=O)[O-]", "note": "[(CH3)2 CH]", "values": [{"measurement": "ED50", "setting": "cucumber cotyledon", "result": 45, "unit": "ppm"}]}
{"molecule": "CCCCNC(=N)N[N+](=O)[O-]", "note": "[-n-C4 H9]", "values": [{"measurement": "EC50", "setting": "cucumber cotyledon", "result": 31, "unit": "µg/mL"}]}
{"molecule": "Cc1n[nH]c2c(NCCC(C)C)ncnc12", "note": "[7-(Isopentylamine)-3-methyl-1H-Pyrazolo[4,3-d]pyrimidine]", "values": [{"measurement": "Relative Chlorophyll", "setting": "cucumber cotyledons", "result": "415 and 406"}, {"measurement": "effect of antagonist on response of cucumber cotyledons to N^6-benzyladenine", "setting": "cucumber cotyledons", "result": "prevents the response of cucumber cotyledons"}, {"measurement": "prevention of enhancement of chlorophyll synthesis", "setting": "cucumber cotyledons", "result": "able to fully prevent the enhancement of chlorophyll synthesis"}, {"measurement": "antagonist concentration decreasing the effect of 2iP, detectable", "setting": "[1]; detectable, against 2iP", "result": 0.1, "unit": "µM"}, {"measurement": "antagonist concentration decreasing the effect of 2iP, lethal", "setting": "[1]; lethal, against 2iP", "result": 0.73, "unit": "µM"}]}
{"molecule": "C/C(=C\\CNC(=N)N[N+](=O)[O-])CO", "values": [{"measurement": "EC50", "setting": "cucumber cotyledon", "result": 2.5, "unit": "µg/mL"}]}
{"molecule": "COCC(C)NC(=N)N[N+](=O)[O-]", "note": "(centres unmarked) [CH3 OCH2 CH(CH3)]", "values": [{"measurement": "EC50", "setting": "cucumber cotyledon", "result": 113, "unit": "µg/mL"}]}
{"molecule": "c1ccc(CNc2ncnc3nc[nH]c23)cc1", "note": "[N^6 benzyladenine, N^6 -benzyladenine]", "values": [{"measurement": "optimum concentration of the standard", "setting": "Soybean callus", "result": "10^-6 M"}, {"measurement": "effect on callus growth at 10^-4 M", "setting": "Soybean callus; 10^-4 M", "result": "supraoptimal effect whereby the beneficial effect was negated"}, {"measurement": "Callus Dry Weight", "setting": "Soybean callus; 10^-4 M", "result": "28 ± 5", "unit": "mg per 3 pieces"}, {"measurement": "Callus Fresh Weight", "setting": "Soybean callus; 10^-4 M", "result": "434 ± 193", "unit": "mg per 3 pieces"}, {"measurement": "Callus Dry Weight", "setting": "Soybean callus; 10^-6 M", "result": "351 ± 63", "unit": "mg per 3 pieces"}, {"measurement": "Callus Fresh Weight", "setting": "Soybean callus; 10^-6 M", "result": "5826 ± 1110", "unit": "mg per 3 pieces"}, {"measurement": "Relative Chlorophyll", "setting": "cucumber cotyledons; Experiment A, 0.1 ppm, antagonist none, H2O alone 370", "result": 853}, {"measurement": "Relative Chlorophyll", "setting": "cucumber cotyledons; Experiment A, 0.1 ppm, with antagonist 10 ppm, H2O alone 370", "result": 460}]}
{"molecule": "C/C(Cl)=C/CNC(=N)N[N+](=O)[O-]", "values": [{"measurement": "EC50", "setting": "cucumber cotyledon", "result": 1, "unit": "µg/mL"}]}
{"molecule": "CCC(C)(C)NC(=N)N[N+](=O)[O-]", "note": "[C2 H5 C(CH3)2]", "values": [{"measurement": "EC50", "setting": "cucumber cotyledon", "result": 22, "unit": "µg/mL"}]}
{"molecule": "N=C(NCCC=C(Cl)Cl)N[N+](=O)[O-]", "note": "[(Cl)2 CCHCH2 CH 2]", "values": [{"measurement": "EC50", "setting": "cucumber cotyledon", "result": 11, "unit": "µg/mL"}]}
{"molecule": "N=C(NCCCC(N)C(=O)O)N[N+](=O)[O-]", "note": "(centres unmarked)", "values": [{"measurement": "EC50", "setting": "cucumber cotyledon", "result": 31, "unit": "µg/mL"}]}
{"molecule": "C=CC(C)(C)NC(=N)N[N+](=O)[O-]", "note": "[CH2CHC(CH3)2]", "values": [{"measurement": "ED50", "setting": "cucumber cotyledon", "result": 157, "unit": "ppm"}]}
{"molecule": "CC(C)(C)NC(=N)N[N+](=O)[O-]", "note": "[(CH3)3 C]", "values": [{"measurement": "ED50", "setting": "cucumber cotyledon", "result": 31, "unit": "ppm"}]}
{"molecule": "CC(C)=CCNC(=N)N[N+](=O)[O-]", "note": "[1-(3-methyl-2-butenyl)-3-nitroguanidine]", "values": [{"measurement": "EC50", "setting": "cucumber cotyledon", "result": 3.8, "unit": "µg/mL"}, {"measurement": "effect on callus growth at 10^-4 M", "setting": "Soybean callus; 10^-4 M", "result": "extremely active"}, {"measurement": "Callus Dry Weight", "setting": "Soybean callus; 10^-4 M", "result": "410 ± 87", "unit": "mg per 3 pieces"}, {"measurement": "Callus Fresh Weight", "setting": "Soybean callus; 10^-4 M", "result": "5324 ± 1148", "unit": "mg per 3 pieces"}, {"measurement": "Relative Chlorophyll", "setting": "cucumber cotyledons; Experiment B, 20 ppm, antagonist none, H2O alone 443", "result": 1200}, {"measurement": "Relative Chlorophyll", "setting": "cucumber cotyledons; Experiment B, 20 ppm, with antagonist 10 ppm, H2O alone 443", "result": 388}, {"measurement": "Callus Growth Fresh weight", "setting": "[2]; Molar concentration 10^-4", "result": 2.9, "unit": "grams per flask"}, {"measurement": "Chlorophyll production", "setting": "[2]; Molar concentration 10^-4", "result": "++"}]}
{"molecule": "C=CCNC(=N)N[N+](=O)[O-]", "note": "[CH2CHCH2]", "values": [{"measurement": "ED50", "setting": "cucumber cotyledon", "result": 22, "unit": "ppm"}]}
{"molecule": "c1coc(CNc2ncnc3[nH]cnc23)c1", "note": "[Kinetin]", "values": [{"measurement": "Callus Growth Fresh weight", "setting": "[2]; Molar concentration 10^-4", "result": 1.4, "unit": "grams per flask"}, {"measurement": "Chlorophyll production", "setting": "[2]; Molar concentration 10^-4", "result": "-"}, {"measurement": "Callus Growth Fresh weight", "setting": "[2]; Molar concentration 10^-5", "result": 0.8, "unit": "grams per flask"}, {"measurement": "Chlorophyll production", "setting": "[2]; Molar concentration 10^-5", "result": "-"}, {"measurement": "Callus Growth Fresh weight", "setting": "[2]; Molar concentration 10^-6", "result": 0.3, "unit": "grams per flask"}, {"measurement": "Chlorophyll production", "setting": "[2]; Molar concentration 10^-6", "result": "-"}, {"measurement": "Callus Growth Fresh weight", "setting": "[2]; Molar concentration 10^-7", "result": 0.2, "unit": "grams per flask"}, {"measurement": "Chlorophyll production", "setting": "[2]; Molar concentration 10^-7", "result": "-"}, {"measurement": "efficacy in the habituated callus system", "setting": "[2]; reduced auxin level (0.02 ppm naphthalene acetic acid)", "result": "ineffective"}]}
{"molecule": "CC(CO)CCNC(=N)N[N+](=O)[O-]", "note": "(centres unmarked)", "values": [{"measurement": "EC50", "setting": "cucumber cotyledon", "result": 14, "unit": "µg/mL"}]}
{"molecule": "CCOCCNC(=N)N[N+](=O)[O-]", "note": "[C2 H5 OCH2 CH2]", "values": [{"measurement": "EC50", "setting": "cucumber cotyledon", "result": 113, "unit": "µg/mL"}]}
{"molecule": "CC(C)CCNC(=N)N[N+](=O)[O-]", "note": "[(CH3)2 CHCH2 CH2]", "values": [{"measurement": "EC50", "setting": "cucumber cotyledon", "result": 64, "unit": "µg/mL"}]}
{"molecule": "CC(C)=CCNc1ncnc2nc[nH]c12", "note": "[2iP, 6-(3-methyl-2-butenylamino)purine]", "values": [{"measurement": "concentration required for maximum growth of tobacco callus tissue cultures", "setting": "[1]", "result": 0.003, "unit": "µM"}]}
